From PMC10223062, “Discovery of Novel Thiophene/Hydrazones: In Vitro and In Silico Studies against Pancreatic Cancer” (Pharmaceutics, 2023)

Key:
MIA PaCa-2 cell line = experiment: 2D anticancer activity, MTT assay; type: cell-based; conditions: Homo sapiens, 72 h exposure, read-out: IC50 in 2D cultured MIA PaCa-2 cell line
Protocol: For the preliminary assessment of anticancer activity in a 2D cell culture system, an MIA PaCa-2 human pancreas epithelial carcinoma (CRL-1420™) cell line (ATCC, Manassas, VA, USA) was cultured in Dulbecco’s Modified Eagle Medium with 10% fetal bovine serum (FBS, v/v) (Gibco, Billings, MT, USA) and supplemented with 1% antibiotics (10,000 μg/mL streptomycin and 10,000 U/mL penicillin) (Gibco, Billings, MT, USA) at 37 °C in a humidified 5% CO2 atmosphere. For the in vitro modeling of the tumor microenvironment, compounds were also tested in a 3D spheroid test system. For this purpose, the MIA PaCa-2 human pancreas epithelial carcinoma (CRL-1420™) cell line and human dermal fibroblast cell line HDF (PCS-201-012) cells were used.
For the assessment of anticancer activity of the compounds, the MIA PaCa-2 cells were plated in 48-well microplates at 1.5 × 10^5 cells/mL and incubated for 24 h at 37 °C in 5% CO2 in accordance with a previously reported method. Following the day, the cells were treated with compounds in various concentrations between 0.1–100 µM dissolved in dimethyl sulfoxide (DMSO) (Sigma Aldrich, St. Louis, MO, USA). Following the 72 h of incubation, culture mediums were discarded and 0.5 mg/mL 3-(4,5-Dimethylthiazol-2-yl)-2,5-Diphenyltetrazolium Bromide (MTT) (Sigma Aldrich, St. Louis, MO, USA) was added to each well for an additional 2 h at 37 °C. After 2 h incubation, the medium was discarded and 100 µL of isopropanol (Sigma Aldrich, St. Louis, MO, USA) was added to the wells to dissolve formazan crystals. The optical density was measured at 570 nm wavelength using a microplate reader (Thermo Fisher Scientific Multiskan, Finland). Doxorubicin hydrochloride (DOX) (European Pharmacopoeia standard, Sigma) was used as internal positive control, and 0.5% DMSO (v/v) was used as negative control. The percentage of cell viability was determined by using the following equation:(1) Viability %=(Absorbancecompound)/(Absorbancenegative control)×100%

5-LOX = molecular target: T1, 5-LOX (Homo sapiens, UniProt P09917); experiment: Fluorometric 5-LOX inhibitor screening kit; type: biochemical; conditions: for 5-LOX Percent of İnhibition: at 10 µM
T1 construct: purchased MyBioSource
T1 sequence (P09917 1-674): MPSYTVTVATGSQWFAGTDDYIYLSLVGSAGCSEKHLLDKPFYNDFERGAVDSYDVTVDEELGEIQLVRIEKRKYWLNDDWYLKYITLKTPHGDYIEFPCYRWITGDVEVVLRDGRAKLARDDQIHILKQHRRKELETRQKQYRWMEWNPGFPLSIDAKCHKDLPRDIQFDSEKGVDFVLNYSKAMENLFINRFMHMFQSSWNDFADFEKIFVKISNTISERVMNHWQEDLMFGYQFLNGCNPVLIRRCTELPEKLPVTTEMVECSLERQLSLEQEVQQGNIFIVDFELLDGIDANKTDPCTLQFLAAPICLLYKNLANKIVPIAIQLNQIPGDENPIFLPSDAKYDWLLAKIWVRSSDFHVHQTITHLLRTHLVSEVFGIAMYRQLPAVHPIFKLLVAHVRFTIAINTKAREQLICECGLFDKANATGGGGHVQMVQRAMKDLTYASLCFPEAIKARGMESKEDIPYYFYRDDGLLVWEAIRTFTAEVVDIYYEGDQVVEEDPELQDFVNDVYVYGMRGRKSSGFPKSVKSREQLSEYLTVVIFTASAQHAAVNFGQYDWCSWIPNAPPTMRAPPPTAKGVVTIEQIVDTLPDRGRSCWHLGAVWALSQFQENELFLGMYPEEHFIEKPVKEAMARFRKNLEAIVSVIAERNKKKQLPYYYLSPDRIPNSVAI
Protocol: COX-1 and COX-2 inhibitory activities were tested using fluorometric COX-1 and COX-2 inhibitor screening kits (Abcam, United Kingdom), and the 5-LOX inhibitory activity was tested using a fluorometric 5-LOX inhibitor screening kit (MyBioSource, USA). These assays are based on the fluorometric detection of Prostaglandin G2 (a product generated by the COX enzyme) or on the fluorometric detection of the intermediate generated by the 5-LOX enzyme. The experiments were conducted in accordance with the manufacturers’ instructions.
For the determination of 5-LOX inhibitory activity, tested compounds were dissolved in DMSO (5 mM stock solution) and then diluted with the same solvent to obtain the test solutions. Test solutions were added to wells in an amount of 2 µL in the final 100 µL reaction volume. […] EC, SC, IC, and all test solutions were analyzed in triplicate.

COX-1 = molecular target: T2, COX-1 (Ovis aries, UniProt P05979); experiment: Fluorometric COX-1 inhibitor screening kit
T2 sequence (P05979 25-600): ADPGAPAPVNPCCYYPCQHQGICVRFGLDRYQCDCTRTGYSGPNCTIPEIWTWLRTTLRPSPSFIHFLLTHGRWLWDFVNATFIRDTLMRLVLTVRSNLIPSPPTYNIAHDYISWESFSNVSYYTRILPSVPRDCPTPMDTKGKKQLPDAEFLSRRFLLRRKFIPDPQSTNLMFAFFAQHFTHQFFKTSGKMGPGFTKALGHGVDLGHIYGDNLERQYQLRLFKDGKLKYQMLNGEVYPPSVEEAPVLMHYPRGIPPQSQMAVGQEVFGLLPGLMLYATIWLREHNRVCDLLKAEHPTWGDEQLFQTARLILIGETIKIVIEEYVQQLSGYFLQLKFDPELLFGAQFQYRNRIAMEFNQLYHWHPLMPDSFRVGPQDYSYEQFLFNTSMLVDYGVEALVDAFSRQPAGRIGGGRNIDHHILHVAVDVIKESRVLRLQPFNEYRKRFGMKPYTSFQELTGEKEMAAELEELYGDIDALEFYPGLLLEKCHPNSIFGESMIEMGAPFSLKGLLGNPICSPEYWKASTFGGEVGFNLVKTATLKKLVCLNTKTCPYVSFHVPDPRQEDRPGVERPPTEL
Protocol: For the determination of COX-1 and COX-2 inhibitory activity, the tested compounds were dissolved in dimethyl sulfoxide (DMSO, 5 mM stock solution) and then diluted with the same solvent to obtain the test solutions. The test solutions were further diluted 5× with COX Assay Buffer (2 µL of test solution: 8 µL COX Assay Buffer). […] Solvent Control (SC) was prepared by adding 2 µL DMSO and 8 µL COX Assay Buffer, while Sample (S) and Enzyme Control (EC) were prepared by adding 10 µL of diluted test solution and COX Assay Buffer, respectively, into assigned wells.

| SMILES | IC50 (MIA PaCa-2 cell line) [µM] | IC50 (5-LOX) [µM] | 5-LOX Percent of İnhibition (5-LOX) [%] | melting point [°C] | IC50 (COX-1) [µM] |
| --- | --- | --- | --- | --- | --- |
| O=C(N/N=C/c1ccccc1O)c1cc(-c2ccccc2)c(-c2ccccc2)s1 [7a, N’-[(E)-(2-hydroxyphenyl)methylidene]-4,5-diphenylthiophene-2-carbohydrazide] | 7.51 ± 0.08 | 3.78 ± 0.39 | 64.38 ± 0.46 | 238 | – |
| COc1ccccc1/C=N/NC(=O)c1cc(-c2ccccc2)c(-c2ccccc2)s1 [7d, N’-[(E)-(2-methoxyphenyl)methylidene]-4,5-diphenylthiophene-2-carbohydrazide] | 9.09 ± 1.04 | – | 15.61 ± 0.66 | 263 | – |
| COc1ccc(/C=N/NC(=O)c2cc(-c3ccccc3)c(-c3ccccc3)s2)cc1O [7f, N’-[(E)-(3-hydroxy-4-methoxyphenyl)methylidene]-4,5-diphenylthiophene-2-carbohydrazide] | 4.86 ± 0.19 | 2.94 ± 0.2 | 60.56 ± 2.49 | 249 | > 100 |

Continued, values first:

| IC50 (MIA PaCa-2 cell line) [µM] | IC50 (5-LOX) [µM] | 5-LOX Percent of İnhibition (5-LOX) [%] | melting point [°C] | IC50 (COX-1) [µM] | SMILES |
| --- | --- | --- | --- | --- | --- |
| 42.8 ± 3.59 | 2.6 ± 0.11 | 55.05 ± 1.37 | 256 | > 100 | O=C(N/N=C/c1ccc(O)cc1)c1cc(-c2ccccc2)c(-c2ccccc2)s1 [7c, N’-[(E)-(4-hydroxyphenyl)methylidene]-4,5-diphenylthiophene-2-carbohydrazide] |
| > 100 | 3.3 ± 0.07 | 60.69 ± 0.54 | 234 | > 100 | COc1cc(/C=N/NC(=O)c2cc(-c3ccccc3)c(-c3ccccc3)s2)ccc1O [7e, N’-[(E)-(3-methoxy-4-hydroxyphenyl)methylidene]-4,5-diphenylthiophene-2-carbohydrazide] |
